Consider one compound from patent US11925611B2, “Use of ZT-1A and analogs thereof to prevent and/or treat neurodegenerative and neurocognitive disorders” (United States Government as Represented by the Department …, priority 2021, dated 2024).

Where two headings read alike, the source gives them in different places.

The test system of one experiment is NKCC1. As to the kind of experiment: Cellular inhibition of NKCC1 phosphorylation (pThr203). Type of experiment: cell-based. The following applies: Isotonic conditions; n = 3; — = no inhibition; read-out: NKCC1 pThr203 (μM) Iso. The text has this: (§1) 8. Cellular Activity Profile of Inhibitors with the Salicyclic Amide
(§2) A list of the compounds evaluated for their ability to inhibit phosphorylation of SPAK/NKCC1/KCC3 activity is illustrated in Table 1 below.

The test system of the next experiment is KCC3. As to the kind of experiment: Cellular inhibition of KCC3 phosphorylation (pThr991, pThr1048). Type of experiment: cell-based. The following applies: n = 3, — = no inhibition.
Excerpt: as §1, §2

On to `Cc1cc(C(C#N)c2ccc(Cl)cc2)c(Cl)cc1NC(=O)c1cc(Cl)ccc1O` (stereo not shown) [1a (ZT-1a)], for which the IC50 with NKCC1 was determined as 1 µM; in the experiment with KCC3 (Hypotonic conditions, read-out: KCC3 pThr1048 (μM) hypo) it was 3 µM; in the experiment with KCC3 (Isotonic conditions, read-out: KCC3 pThr991 (μM) Iso), 3 µM; in the experiment on KCC3 (Isotonic conditions, read-out: KCC3 pThr1048 (μM) Iso) it was 1 µM.
